Source: the RepoRT retention time repository (doi:10.1016/j.chroma.2015.11.014)

Experiment: RP, Agilent ZORBAX Eclipse Plus C18, 150 × 2.1 mm, 3.5 µm, 40 °C, 0.3 mL/min, estimated dead time 1.1 min; A: water + 0.1% formic acid; B: acetonitrile + 0.1% formic acid; gradient (min/%B) 0/2 1/2 2/20 16.5/98 22/98
Conditions: stereoisomer not certain

Row | Compound | LC retention time
1 | CCCCC[N+](CCCCC)(CCCCC)CCCCC | 11.3 min
2 | CC(=O)OCC[N+](C)(C)C | 2.06 min
3 | COc1nc(NC(C)C)nc(NC(C)C)n1 | 7.39 min
4 | CCCCCCCCOS(=O)(=O)O | 9.59 min
5 | CCCCC(CC)COP(=O)(Oc1ccccc1)Oc1ccccc1 (configuration not stated) | 17 min
6 | CCCCCCCCCCCC[N+](C)(C)C | 10 min
7 | CCCCCCCCCCCCCCCCCC[N+](C)(C)C | 14 min
8 | CCC1(C2OC(C3OC(O)(CO)C(C)CC3C)CC2C)CCC(C2(C)CCC3(CC(O)C(C)C(C(C)C(OC)C(C)C(=O)O)O3)O2)O1 (configuration not stated) | 20.4 min
9 | Cc1cc(N)no1 | 4.41 min
10 | CCC(C)C1OC2(C=CC1C)CC1CC(CC=C(C)C(OC3CC(OC)C(OC4CC(OC)C(NC(C)=O)C(C)O4)C(C)O3)C(C)C=CC=C3COC4C(O)C(C)=CC(C(=O)O1)C34O)O2 (configuration not stated) | 16.2 min
11 | CNC(=O)N(C)c1nc2ccccc2s1 | 9.78 min
12 | CCCC[P+](CCCC)(CCCC)CC1OCCO1 | 8.76 min
13 | O=C(NC1CCCCC1)NC1CCCCC1 | 10.8 min
14 | COCC(C)N(C(=O)CS(=O)(=O)O)c1c(C)csc1C (configuration not stated) | 7.04 min
15 | Nc1nc(NC2CC2)c2ncn(C3C=CC(C(=O)O)C3)c2n1 (configuration not stated) | 5.19 min
16 | COC(=O)Nc1nc2ccccc2[nH]1 | 5.08 min
17 | CCCCCCCCCCCCOCC[N+](C)(C)Cc1ccccc1 | 12.7 min
18 | CCOP(=S)(OCC)Oc1cc(C)nc(C(C)C)n1 | 14.5 min
19 | Cc1ccnc2c1NC(=O)c1cccnc1N2C1CC1 | 7.3 min
20 | Nc1ccn(C2CSC(CO)O2)c(=O)n1 (configuration not stated) | 3.1 min
21 | CCOC(=O)C(CCc1ccccc1)NC(C)C(=O)N1C(C(=O)O)CC2CCCC21 (configuration not stated) | 7.85 min
22 | CSc1ccc(O)cc1C | 9.8 min
23 | COC(=O)CCCCCCCCC(=O)OC1CC(C)(C)N(C)C(C)(C)C1 | 8.34 min
24 | CCCCCCCCCCCCCC[P+](CCCC)(CCCC)CCCC | 14.9 min

Now from value to molecule:

Row | LC retention time | Compound
25 | 6.52 min | CN(C)c1ccc(-c2nc3ccccc3[nH]2)cc1
26 | 13.2 min | CNC(=O)C(=NOC)c1ccccc1COc1cc(C)ccc1C
27 | 8.83 min | CCOC(=O)c1ccc(O)cc1
28 | 8.5 min | CC(C(=O)O)c1ccc2cc(O)ccc2c1 (configuration not stated)
29 | 7.56 min | Cc1noc(NS(=O)(=O)c2ccc(N)cc2)c1C
30 | 10.8 min | O=C(Nc1ccccc1)Nc1ccccc1
31 | 9.03 min | CCCCCCCC[N+](C)(C)Cc1ccccc1
32 | 9.18 min | O=C1CC(c2ccc(O)cc2)Oc2cc(O)cc(O)c21 (configuration not stated)
33 | 13.5 min | COc1ccc(C(=O)c2ccccc2)c(O)c1
34 | 9.95 min | COC(=O)Nc1nc2ccc(Sc3ccccc3)cc2[nH]1
35 | 12.8 min | CC(C)Cc1ccc(C(C)C(=O)O)cc1 (configuration not stated)
36 | 8.83 min | CC(C)(C)OC(=O)C[P+](c1ccccc1)(c1ccccc1)c1ccccc1
37 | 5.22 min | CC(=O)Nc1cc(NC(C)=O)cc(C(=O)O)c1
38 | 10.3 min | CCOc1cc(CC(=O)NC(CC(C)C)c2ccccc2N2CCCCC2)ccc1C(=O)O (configuration not stated)
39 | 7.88 min | COC(=O)c1cccc(O)c1
40 | 7.28 min | CC(=O)C[P+](c1ccccc1)(c1ccccc1)c1ccccc1
41 | 14.1 min | O=C(NC1CCCCC1)N(Cc1ccccc1)Cc1ccccc1
42 | 15.5 min | Cc1cccc(N(C)C(=S)Oc2ccc3ccccc3c2)c1
43 | 9.4 min | O=C(c1ccccc1)c1ccc(O)c(O)c1O
44 | 2.73 min | CNCC(O)c1cccc(O)c1 (configuration not stated)
45 | 13.1 min | CCOC(=O)NCCOc1ccc(Oc2ccccc2)cc1
46 | 5.37 min | CC1(C)SC2C(NC(=O)C(N)c3ccccc3)C(=O)N2C1C(=O)O (configuration not stated)
47 | 9.36 min | c1ccc2sc(N3CCOCC3)nc2c1
